In patent US12005142B2, “Sustained-release compositions comprising a therapeutic agent for treating depression or anxiety and uses thereof” (TAIWAN LIPOSOME CO., LTD., priority 2018, dated 2024):
Where a name gives a salt, the structure may show the parent alone. Read-outs that look alike come from different tables or passages of the source.

What was measured:
[1] = intravenous; of the eight patients enrolled; cited from earlier work
[2] = 3 intravenous infusions, 3-5 days interval; cited from earlier work
[3] = PK study of liposomal ketamine formulation and free ketamine after single subcutaneous injection
Description: Blood samples were collected at 15 min, 0.5, 1, 2, 4, 6, 8, 24 and 48 hours post-injection.

[4] = cited from earlier work
[5] = three infusions per week; eight of nine subjects; cited from earlier work
[6] = oral administration; cited from earlier work
[7] = free ketamine IV infusion 10 mg/kg/min over 5 min (50.0 mg/kg), Wistar rats; cited from earlier work
[8] = free ketamine, intraperitoneal injection in rat; cited from earlier work
[9] = cited from earlier work; remark: listed apart in the source
[10] = female, Sprague-Dawley, rat, plasma, sc, 5 mg/kg
[11] = free ketamine SC 5.0 mg/kg, rat plasma

**Q.** Which “patients remitted to the nondepressed range (MADRS score 10)” value [1] does the source give for CN1[C@@H]2C[C@@H](OC(=O)[C@H](CO)c3ccccc3)C[C@H]1[C@@H]1O[C@@H]12 [Free Scopolamine, scopolamine hydrobromide trihydrate] here?
**A.** The value was 3.

**Q.** And the “patients with a 50% or greater reduction in MADRS scores” value [1]?
**A.** Its value is “five”.

**Q.** What about the “persistence of clinical improvement following the final infusion” value [2] of the same molecule?
**A.** Its value is “more than 2 weeks”.

**Q.** For CNC1(c2ccccc2Cl)CCCCC1=O (stereo not drawn) [Free Ketamine, ketamine hydrochloride], which AUC(0-inf) [3, 10] is on record?
**A.** Its AUC(0-inf) is 314 ng·h/mL.

**Q.** What about the AUC(0-t) [3, 10] of the same molecule?
**A.** Its AUC(0-t) is 305 ng·h/mL.

**Q.** What about the Cmax [3, 10] of the same molecule?
**A.** The Cmax was 190 ng/mL.

**Q.** And the half-life [3, 10]?
**A.** Its half-life is 46.2 min.

**Q.** What about the AUC0-inf/dose [3, 11] of the same molecule?
**A.** The AUC0-inf/dose was 62.9.

**Q.** What about the AUC0-t/dose [3, 11] of the same molecule?
**A.** The AUC0-t/dose was 61.0.

**Q.** What about the Cmax/dose [3, 11] of the same molecule?
**A.** The Cmax/dose was 38.0.

**Q.** And the “time post injection at which ketamine was undetectable in plasma” value ([3]; free ketamine SC, FIG. 1)?
**A.** Its value is 4 h.

**Q.** What about the “patients in whom the therapeutic response was maintained” value ([4]; for a week after a single intravenous infusion) of the same molecule?
**A.** The value was 35%.

**Q.** And the “patients with >50% decrease in Hamilton Depression Rating Scale (HDRS) score” value ([4]; one day after a single intravenous infusion, 17 patients)?
**A.** Its value is 71%.

**Q.** What about the “time to relapse after the final intravenous infusion” value [5] of the same molecule?
**A.** Its value is no more than 19 days.

**Q.** And the “patients showing improvement of mood symptoms” value [6]?
**A.** The value was “approximately 30%”.

**Q.** What about the “t1/2” value [7] of the same molecule?
**A.** The value was 37.8 min.

**Q.** And the half-life [8]?
**A.** The half-life was 78 min.

**Q.** And the oral bioavailability [9]?
**A.** Its oral bioavailability is 17%.
